The test system of data set [1] is L1236-R100, L1236/DMSO and L1236. Put plainly: Viable cell count and IC50, three L1236 cell lines. In kind it is cell-based. Conditions: Homo sapiens, L-1236; all cell lines tested, including R100. The procedure:
(§1) • (a) Five Hodgkin lymphoma cell lines (KMH2, HDML2, L540, L1236 and L426) were cultured separately in the presence of bendamustine, vorinostat and EDO-S101 dissolved in DMSO at 37° C. L1236-derived Hodgkin lymphoma cell lines were selected as they have an acquired stable resistance to bendamustine (R100) or an ability to display continuous growth upon extended exposure to sub-lethal concentrations of bendamustine (R25, R50 and R75). A detailed description of the L1236-R Hodgkin lymphoma cell lines is disclosed in De Filippi et al, ASH 2015, Abstract. #2479. In these tests, the L1236-100R bendamustine resistant strain was used. […] Control cells were cultured in the same final concentration of DMSO. The number of viable cells was assessed at 24, 48 and 72 hours through a Countess™ automated cell counter (Invitrogen), each experiment being repeated three times and the results given being the mean of the three results±SD.

A further data set relates to KMH2. As to the kind of experiment: Clonogenic survival in methylcellulose, KMH2. In kind it is cell-based, human. Conditions: lowest doses (0.1 and 0.5 μmol). The protocol: (§2) In all examples, the human Hodgkin lymphoma-derived cell lines L428, L428-c, KMH2, L591, L540, L1236, HDLM2 and SUP-HD were obtained from Dr Steffen Junker (Aarhus University Denmark). All cell lines were cultured in Gibco RPMI 1640 medium supplemented with Glutamax, 10% FBS and antibiotics at 37° C. […] The immunophenotype, P53 status and MSI characterization of the Hodgkin lymphoma cell lines was determined using anti-CD30, CD15, CD20 and CD14 antibodies.
(§3) This test was performed on four Hodgkin lymphoma cell lines (L428, L428s, KMH2 and L540). Each was cultured with EDO-S101 at doses of 0, 0.1, 0.5, 1, 10 and 20 μmol in DMSO. The cell lines were cultured in methylcellulose (Stem cell Technologies) at a concentration of 10^5/ml at 37° C. and 5% CO2. The surviving fraction was determined by measuring the viability of colonies generated before and after exposure. Only colonies with more than 50 cells were counted. Each data point represents the average and SD from three independent experiments performed in triplicate.

The subject of the next data set is L1236-R100. As to the kind of experiment: Viable cell count and IC50, bendamustine-resistant cell line. In kind it is cell-based, human. The protocol: as §1
The nature of data set [2]: Weight of xenografted NSG mice after EDO-S101. In kind it is in vivo. The procedure: Two independent experiments were performed to investigate the dose-effect of EDO-S101 in NSG mice eight weeks after xenografting with L428 cells as in Example 8. The aim of the protocol shown in FIG. 8B was to evaluate the effect of sequential treatment with a moderate dose of 60 mg/kg given at an interval of three weeks.
This weight loss was also observed in mice treated with the vehicle. In contrast, the weight of the control mice receiving only freshly prepared phosphate buffered saline (PBS) buffered to 7.3-7.4 increased up to 11 weeks and then started to decrease.
The toxicity of the dose of 80 mg/kg compared to 60 mg/kg was investigated, as compared to the control groups vehicle and PBS.

The next data set has as its system L1236. As to the kind of experiment: Cell cycle checkpoint proteins and gene expression, L1236. In kind it is cell-based, human. To be noted: naïve L1236; EDO-S101 alone.
Data set [3] in a line: Histopathology of non-tumour findings (lung, spleen) in xenografted NSG mice. Also on record: key: 0: within physiological limits; 1: minimal; 2: mild; 3: moderate; 4: marked; 5: severe. In kind it is in vivo. The protocol: Organs were fixed in 4% PFA, trimmed and post-fixed in 70° ethanol. They were then briefly processed using a vacuum inclusion processor and paraffin blocks were prepared. Five micrometer-thick sections were cut from these blocks and the resulting sections were stained with hemotoxylin-eosine (H&E) for histopathological analysis. In addition, IHC was carried out on of the totality of liver and spleen specimens for confirmation of the spread of engrafted cells. The search for single cells or small groups of grafted Hodgkin lymphoma cells was performed using an anti-CD30 antibody (DAKO, France; 1:40, EDTA pH9 pre-treatment) and the Ventana Discovery XT IHC system. Apoptosis and tumour necrosis were analysed.
Microscopic findings were assigned a severity score based upon the following scale: “0”=within physiological limits, “1”=minimal, “2”=mild, “3”=moderate, “4”=marked, “5”=severe. This severity score was attributed according to the size and number of observed lesions.

The test system of a further data set is L540. Put plainly: Clonogenic survival in methylcellulose, L540. In kind it is cell-based, human. To be noted: any dose (0.1, 0.5, 1, 10 and 20 μmol). The procedure: as §2, §3
The test system of a further data set is L428. As to the kind of experiment: Clonogenic survival in methylcellulose, L428. Conditions: very low doses (0.1 and 0.5 μmol). In kind it is cell-based, human. The protocol: as §2, §3

Broadly, the IC50 is the concentration that inhibits the measured activity by half. Compound `Cn1c(CCCCCCC(=O)NO)nc2cc(N(CCCl)CCCl)ccc21` [EDO-S101] yielded an IC50 in data set [1] of 1 to 3 µM. Further, the entries for the “clones observed (clonogenic survival)” value in the data set on KMH2, in the data set on L540 and with L428 were “only a few clones”, “No clone was observed” and “only macrophagic clones being observed”, respectively. Moreover, the viable cells entry with L1236-R100 (R100, 48 hours after treatment with 50 μM) is reported as “no viable cells”. Also, the “anti-proliferative activity compared with vorinostat” value in the data set on L1236-R100 (bendamustine-resistant cell line R100) is “greater than that of vorinostat”. In addition, the “weight loss, 60 mg/kg versus 80 mg/kg” value in data set [2] (single dose 60 mg/kg or 80 mg/kg) is recorded as “no significant difference”. Besides, in data set [2] (treated versus untreated mice), the “weight of the mice or the different organs” value is listed as “No significant difference”. In addition, in data set [2] (two doses of 60 mg/kg three weeks apart), the weight of mice result is given as “weight loss following each administration which was regained after several weeks”. Moreover, the “cell cycle checkpoint proteins, cellular and gene expression changes” value in the data set on L1236 was “activated cell cycle checkpoint proteins and induced cellular and gene expression changes compatible with the triggering of apoptosis”. Further, the “Lung, alveolar histiocytosis (score per animal)” value in data set [3] (1*60 mg/kg) and in data set [3] (1*80 mg/kg) was 1 in each case. Moreover, the “Spleen, red pulp activation, diffuse (score per animal)” value in data set [3] (2*60 mg/kg) is on record as 3.
